Data on 17 molecules can be found in ChEMBL document CHEMBL3286108, “Novel arylsulfonamide derivatives with 5-HT₆/5-HT₇ receptor antagonism targeting behavioral and psychological symptoms of dementia” (J Med Chem, 2014).

Calls of active or inactive are those of the source. The rule behind the calls is not given here. A value given as a limit tells only on which side of the number the result lay.

Series [1] has as its target T1, 5-hydroxytryptamine receptor 6 (Homo sapiens, UniProt P50406). In words: biochemical.
For series [2], the target named is T2, 5-hydroxytryptamine receptor 7 (Homo sapiens, UniProt P34969). The series is described as follows: biochemical. In kind it is cell-based, CHO-K1.
Series [3] has as its target T2, 5-hydroxytryptamine receptor 7. In words: Agonist activity at human 5-HT7 receptor expressed in CHO-K1 cells assessed as cAMP accumulation after 60 mins by TR-FRET immunoassay. In kind it is functional, cell-based. A general note: cAMP levels reflect the balance of adenylyl cyclase and phosphodiesterase activity.
The target in series [4] is T3, 5-hydroxytryptamine receptor 2A (Homo sapiens, UniProt P28223). In words: Antagonist activity at human recombinant 5-HT2A receptor expressed in CHO-K1 cells assessed as inhibition of alpha-methyl serotonin-induced response treated 15 to 30 mins before agonist challenge by luminescence analysis. It is filed as cell-based.
The target in series [5] is T4, D(2) dopamine receptor (Homo sapiens, UniProt P14416). In words: biochemical.
Series [6] deals with T4, D(2) dopamine receptor. In words: Agonist activity at human recombinant D2 receptor expressed in CHO-K1 cells by luminescence analysis. It is filed as cell-based.
The target of series [7] is T3, 5-hydroxytryptamine receptor 2A. The series is described as follows: Agonist activity at human recombinant 5-HT2A receptor expressed in CHO-K1 cells by luminescence analysis. In kind it is cell-based.
Series [8] has the same target. In words: biochemical. It is filed as cell-based, CHO-K1.
In series [9] the target is T2, 5-hydroxytryptamine receptor 7. In words: Antagonist activity at human 5-HT7 receptor expressed in CHO-K1 cells assessed as inhibition of serotonin-induced cAMP accumulation after 60 mins by TR-FRET immunoassay. In kind it is functional, cell-based.
For series [10], the target named is hERG (KCNH2) potassium channel (Homo sapiens, UniProt Q12809). In words: in vitro. To be noted: CHO cells expressing human cloned ERG.
Series [11] has as its target T1, 5-hydroxytryptamine receptor 6. In words: Agonist activity at human recombinant 5-HT6 receptor expressed in CHO-K1 cells by luminescence analysis. In kind it is cell-based.
Series [12] has the same target. In words: Antagonist activity at human recombinant 5-HT6 receptor expressed in CHO-K1 cells assessed as inhibition of serotonin-induced response treated 15 to 30 mins before agonist challenge by luminescence analysis. It is filed as cell-based.
The target of series [13] is T5, Muscarinic acetylcholine receptor M1 (Homo sapiens) (UniProt P11229).
T5 sequence (whole entry): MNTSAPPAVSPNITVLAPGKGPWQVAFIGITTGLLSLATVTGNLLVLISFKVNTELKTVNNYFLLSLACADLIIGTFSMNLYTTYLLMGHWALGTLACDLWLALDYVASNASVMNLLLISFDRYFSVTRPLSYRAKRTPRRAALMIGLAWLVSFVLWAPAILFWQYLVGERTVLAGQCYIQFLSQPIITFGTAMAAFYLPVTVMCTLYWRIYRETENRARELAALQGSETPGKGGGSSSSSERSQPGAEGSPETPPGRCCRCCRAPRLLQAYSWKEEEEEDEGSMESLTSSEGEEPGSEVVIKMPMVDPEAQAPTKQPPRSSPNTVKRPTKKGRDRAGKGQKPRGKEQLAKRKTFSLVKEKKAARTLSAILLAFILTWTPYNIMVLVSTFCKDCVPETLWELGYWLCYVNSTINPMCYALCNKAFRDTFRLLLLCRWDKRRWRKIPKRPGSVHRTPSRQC
In words: Displacement of [3H]pirenzepine from human recombinant M1 receptor expressed in CHO cells at 1 uM. It is filed as cell-based. (In general: In a radioligand displacement assay an active substance lowers the binding of a labelled ligand.)

T3 sequence (P28223 whole entry): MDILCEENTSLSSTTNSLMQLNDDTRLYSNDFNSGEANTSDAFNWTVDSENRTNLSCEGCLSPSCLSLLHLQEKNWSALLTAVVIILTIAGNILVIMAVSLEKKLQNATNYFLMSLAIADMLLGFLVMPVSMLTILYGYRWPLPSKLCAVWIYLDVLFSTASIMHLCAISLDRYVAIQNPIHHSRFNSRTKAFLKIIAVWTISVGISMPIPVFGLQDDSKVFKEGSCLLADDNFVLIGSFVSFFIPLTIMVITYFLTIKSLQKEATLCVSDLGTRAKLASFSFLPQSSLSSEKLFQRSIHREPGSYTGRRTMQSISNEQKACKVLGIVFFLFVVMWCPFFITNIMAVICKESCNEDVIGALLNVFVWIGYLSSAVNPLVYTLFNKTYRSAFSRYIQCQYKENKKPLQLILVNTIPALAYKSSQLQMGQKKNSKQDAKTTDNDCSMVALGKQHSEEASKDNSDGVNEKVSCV
T4 sequence (P14416 whole entry): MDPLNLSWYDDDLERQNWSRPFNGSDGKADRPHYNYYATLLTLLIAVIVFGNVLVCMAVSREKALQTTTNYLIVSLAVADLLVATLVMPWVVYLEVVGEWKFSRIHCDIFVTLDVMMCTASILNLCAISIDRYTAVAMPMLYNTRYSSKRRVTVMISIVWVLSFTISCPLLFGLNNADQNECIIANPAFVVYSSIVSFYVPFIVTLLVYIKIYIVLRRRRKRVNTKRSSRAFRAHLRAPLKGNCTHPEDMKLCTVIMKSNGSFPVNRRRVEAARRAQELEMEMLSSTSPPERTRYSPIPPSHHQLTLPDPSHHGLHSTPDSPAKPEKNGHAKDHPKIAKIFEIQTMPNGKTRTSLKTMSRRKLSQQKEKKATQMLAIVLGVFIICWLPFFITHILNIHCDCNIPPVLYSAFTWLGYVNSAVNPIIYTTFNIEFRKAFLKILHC
T2 sequence (P34969 whole entry): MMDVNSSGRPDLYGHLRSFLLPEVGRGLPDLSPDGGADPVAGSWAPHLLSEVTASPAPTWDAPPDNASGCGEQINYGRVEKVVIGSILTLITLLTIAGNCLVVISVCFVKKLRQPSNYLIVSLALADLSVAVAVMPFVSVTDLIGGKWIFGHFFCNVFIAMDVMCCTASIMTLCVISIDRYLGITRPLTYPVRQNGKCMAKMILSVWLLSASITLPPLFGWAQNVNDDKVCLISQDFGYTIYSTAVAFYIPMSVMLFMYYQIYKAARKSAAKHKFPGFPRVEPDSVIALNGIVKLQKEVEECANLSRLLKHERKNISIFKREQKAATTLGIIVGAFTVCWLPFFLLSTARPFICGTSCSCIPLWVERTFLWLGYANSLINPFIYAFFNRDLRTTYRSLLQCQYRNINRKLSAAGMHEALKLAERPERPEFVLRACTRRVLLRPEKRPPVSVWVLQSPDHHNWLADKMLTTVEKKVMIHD
Sequence of hERG (KCNH2) potassium channel (Q12809 whole entry): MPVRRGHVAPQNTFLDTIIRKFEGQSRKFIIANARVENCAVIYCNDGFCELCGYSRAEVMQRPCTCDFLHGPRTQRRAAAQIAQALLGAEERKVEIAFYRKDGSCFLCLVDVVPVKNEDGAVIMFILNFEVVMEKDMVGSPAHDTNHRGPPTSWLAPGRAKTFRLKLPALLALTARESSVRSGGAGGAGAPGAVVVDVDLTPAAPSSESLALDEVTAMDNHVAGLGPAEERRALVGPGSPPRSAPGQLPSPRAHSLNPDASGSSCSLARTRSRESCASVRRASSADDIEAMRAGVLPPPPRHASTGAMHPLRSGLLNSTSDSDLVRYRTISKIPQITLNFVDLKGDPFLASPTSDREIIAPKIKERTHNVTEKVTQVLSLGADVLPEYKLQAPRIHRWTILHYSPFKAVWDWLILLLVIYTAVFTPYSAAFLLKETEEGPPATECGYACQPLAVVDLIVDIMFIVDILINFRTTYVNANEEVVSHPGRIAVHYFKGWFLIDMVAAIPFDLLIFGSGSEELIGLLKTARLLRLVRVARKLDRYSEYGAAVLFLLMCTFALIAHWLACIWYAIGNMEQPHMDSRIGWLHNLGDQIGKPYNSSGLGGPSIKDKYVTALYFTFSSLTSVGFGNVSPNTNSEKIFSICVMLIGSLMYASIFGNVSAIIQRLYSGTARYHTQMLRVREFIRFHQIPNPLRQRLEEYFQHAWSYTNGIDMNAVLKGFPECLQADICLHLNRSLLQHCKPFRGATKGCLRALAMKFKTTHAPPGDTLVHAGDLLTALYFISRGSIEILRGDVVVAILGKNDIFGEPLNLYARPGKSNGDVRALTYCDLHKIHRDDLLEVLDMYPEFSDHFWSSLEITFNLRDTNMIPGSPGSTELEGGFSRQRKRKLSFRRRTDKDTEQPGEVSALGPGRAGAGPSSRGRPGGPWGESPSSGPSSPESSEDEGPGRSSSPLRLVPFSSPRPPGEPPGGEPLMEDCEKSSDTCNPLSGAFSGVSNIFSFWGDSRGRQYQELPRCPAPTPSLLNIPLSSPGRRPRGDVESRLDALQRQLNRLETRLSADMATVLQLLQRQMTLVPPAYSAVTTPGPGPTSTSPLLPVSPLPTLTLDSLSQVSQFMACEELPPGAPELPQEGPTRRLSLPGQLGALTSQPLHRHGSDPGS
T1 sequence (P50406 whole entry): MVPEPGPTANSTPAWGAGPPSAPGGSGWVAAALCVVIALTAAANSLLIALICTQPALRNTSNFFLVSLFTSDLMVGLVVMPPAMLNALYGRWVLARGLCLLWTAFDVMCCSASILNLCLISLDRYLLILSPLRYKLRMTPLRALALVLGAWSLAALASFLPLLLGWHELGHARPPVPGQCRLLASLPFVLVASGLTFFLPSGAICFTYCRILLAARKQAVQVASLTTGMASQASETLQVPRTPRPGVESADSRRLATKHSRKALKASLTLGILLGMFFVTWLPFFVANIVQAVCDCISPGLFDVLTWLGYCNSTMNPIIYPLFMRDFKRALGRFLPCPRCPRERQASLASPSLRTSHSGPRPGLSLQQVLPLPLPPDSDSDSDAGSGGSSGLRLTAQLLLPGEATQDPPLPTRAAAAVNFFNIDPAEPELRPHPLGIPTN

On to `Cc1cccc(S(=O)(=O)NCCCN2CCC(c3noc4cc(F)ccc34)CC2)c1`, for which the Ki (usually the dissociation constant of the complex between target and ligand, obtained from inhibition or displacement) came out at 13 nM in series [1], 0.6 nM in [2], 16 nM on D(2) dopamine receptor [5] and 3.7 nM in series [8]. Further, the result (in series [3]; on D(2) dopamine receptor [6]; in series [7]; in series [11]) was inactive. Also, the values for the Kb in series [4], in series [9] and in series [12] were 15 nM, 0.5 nM and 2.5 nM, respectively. The inhibition (as a rule, the drop in the measured response relative to a control, in per cent) at 1 µM in series [10] worked out at 52%. For the same molecule, in [13], the inhibition was determined as 1%.
For `O=S(=O)(NCCCCN1CCC(c2noc3cc(F)ccc23)CC1)c1cccc2ccccc12`, the Ki in [1] is 8.8 nM; in series [2], 0.8 nM; on D(2) dopamine receptor [5], 3 nM; in series [8] it was 0.6 nM. For the same molecule, the outcome (in series [3]; at D(2) dopamine receptor [6]; in series [7]; in [11]) was inactive. Moreover, the Kb (usually the affinity of an antagonist, worked out from how it opposes an agonist) is 76 nM in series [4], 3 nM in series [9] and 17 nM in series [12]. In addition, the inhibition at 1 µM in series [10] was 24%. Also, the inhibition in series [13] came out at 0%.
Take `Cc1c(S(=O)(=O)NCCCCN2CCC(c3noc4cc(F)ccc34)CC2)sc2ccc(Cl)cc12`: the inhibition constant (Ki) in series [1] came out at 1.8 nM; in [2], 0.7 nM; on D(2) dopamine receptor [5] it was 1.5 nM; in series [8] it was 1 nM. The outcome (in series [3]; at D(2) dopamine receptor [6]; in series [7]; in series [11]) was inactive. Moreover, the Kb in series [4] worked out at 9.5 nM; in series [9], 5.6 nM; in series [12], 22 nM. Moreover, in series [10], the inhibition at 1 µM was 0%. For the same molecule, in [13], the inhibition came to 19%.
As to `O=S(=O)(NCCCCN1CCN(c2nsc3ccccc23)CC1)c1ccc2ccccc2c1`, the Ki in [1] came to 5 nM; in series [2], 1.8 nM; at D(2) dopamine receptor [5] it was 0.9 nM; in series [8], 1.5 nM. Also, the outcome (in [3]; on D(2) dopamine receptor [6]; in series [7]; in [11]) was inactive. The Kb was 110 nM in series [4], 44 nM in series [9] and 7.6 nM in series [12]. The inhibition at 1 µM in [10] worked out at 14%. In addition, in [13], the inhibition is -5%.
As to `O=S(=O)(NCCCCN1CCC(c2noc3cc(F)ccc23)CC1)c1ccc2ccccc2c1`, the inhibitory constant (Ki) in series [1] came out at 2.4 nM; in series [2], 1.4 nM; at D(2) dopamine receptor [5], 1.1 nM; in [8], 1.7 nM. The outcome (in series [3]; on D(2) dopamine receptor [6]; in series [7]; in [11]) was inactive. Besides, the Kb was 14 nM in series [4], 8.8 nM in series [9] and 3.8 nM in series [12]. Further, the inhibition at 1 µM in [10] was determined as 30%. For the same molecule, the inhibition in series [13] was determined as 0%.
Turning to `O=S(=O)(NCCCCN1CCN(c2noc3ccccc23)CC1)c1ccc2ccccc2c1`, the Ki in series [1] came to 6.2 nM; in series [2] it was 0.8 nM; on D(2) dopamine receptor [5], 15 nM; in [8], 0.7 nM. Also, the result (in [3]; on D(2) dopamine receptor [6]; in [7]; in [11]) was inactive. The Kb is 11 nM in [4], 9.2 nM in series [9] and 11 nM in series [12]. Further, the inhibition at 1 µM in series [10] turned out to be 0%. For the same molecule, the inhibition in series [13] is -3%.
Regarding `O=S(=O)(NCCCN1CCC(c2noc3cc(F)ccc23)CC1)c1ccc(F)c(Cl)c1`, the Ki turned out to be 1.6 nM in [1], 0.9 nM in series [2], 3.7 nM on D(2) dopamine receptor [5] and 1.5 nM in [8]. Moreover, the outcome (in series [3]; at D(2) dopamine receptor [6]; in series [7]; in series [11]) was inactive. Also, the Kb in [4] came out at 7 nM; in [9], 0.8 nM; in series [12] it was 7.4 nM. Moreover, in [10], the inhibition at 1 µM was determined as 32%. For the same molecule, the inhibition in series [13] was -8%.
With `O=S(=O)(NCCCN1CCC(c2noc3cc(F)ccc23)CC1)c1cccc2scnc12`, the Ki in [1] was 23 nM; in [2], 1.3 nM; on D(2) dopamine receptor [5], over 1000 nM; in series [8], 9.1 nM. In series [10], the inhibition at 1 µM stood at 51%. In addition, the inhibition in series [13] was determined as 1%.
For `O=S(=O)(NCCCCN1CCC(c2noc3cc(F)ccc23)CC1)c1ccc2cc(Cl)ccc2c1`, the Ki in [1] came out at 2.4 nM; in series [2], 3.2 nM; on D(2) dopamine receptor [5], 1 nM; in series [8], 0.6 nM. Further, the outcome (in series [3]; on D(2) dopamine receptor [6]; in series [7]; in [11]) was inactive. For the same molecule, the Kb in series [4] was determined as 6.5 nM; in [9], 1 nM; in series [12], 8.3 nM.
In the case of `O=S(=O)(NCCCCN1CCN(c2noc3ccccc23)CC1)c1cnc2ccccn12`, the Ki in series [1] was 95 nM; in series [2] it was 5.9 nM; at D(2) dopamine receptor [5], 100 nM; in series [8] it was 13 nM. Moreover, the inhibition at 1 µM in series [10] turned out to be 13%. The inhibition in series [13] was determined as 0%.
In the case of `O=S(=O)(NCCCCN1CCC(c2noc3cc(F)ccc23)CC1)c1cc2ccc(Cl)cc2s1`, the Ki in series [1] was determined as 3.3 nM; in [2] it was 1.3 nM; on D(2) dopamine receptor [5], 1.2 nM; in series [8], 0.8 nM. Besides, the outcome (in series [3]; at D(2) dopamine receptor [6]; in [7]; in series [11]) was inactive. Also, the Kb in series [4] was 55 nM; in series [9] it was 2.8 nM; in series [12], 21 nM. Further, in series [10], the inhibition at 1 µM amounted to 18%. In [13], the inhibition is 23%.
As to `O=S(=O)(NCCCCN1CCN(c2noc3ccccc23)CC1)c1cccs1`, the Ki in [1] was 5200 nM; in series [2], 67 nM; at D(2) dopamine receptor [5], 5.3 nM; in [8], 2700 nM. The inhibition at 1 µM in [10] turned out to be 39%. In series [13], the inhibition was 3%.
As for `O=S(=O)(NCCN1CCC(c2noc3cc(F)ccc23)CC1)c1cccc2ccccc12`, the Ki in series [1] amounted to 250 nM; in series [2], 1.3 nM; on D(2) dopamine receptor [5], 9.1 nM; in series [8], 0.7 nM. In [10], the inhibition at 1 µM was determined as 0%. Besides, in [13], the inhibition is -8%.
As for `O=S(=O)(NCCCCN1CCN(c2nsc3ccccc23)CC1)c1cnc2ccccn12`, the Ki in [1] amounted to 140 nM; in series [2], 4.1 nM; on D(2) dopamine receptor [5], 46 nM; in series [8], 8.1 nM. In addition, the inhibition at 1 µM in [10] turned out to be 17%. In series [13], the inhibition stood at 6%.
On to `O=S(=O)(NCCCN1CCC(c2noc3cc(F)ccc23)CC1)c1ccc2cc(Cl)ccc2c1`, for which the Ki in series [1] was 26 nM; in series [2], 18 nM; at D(2) dopamine receptor [5] it was 23 nM; in [8], 3.1 nM. In addition, the inhibition at 1 µM in series [10] worked out at 28%. Moreover, the inhibition in series [13] is -7%.
For the molecule `O=S(=O)(NCCCN1CCN(c2noc3ccccc23)CC1)c1ccc2cc(Cl)ccc2c1`, the Ki was 2300 nM in series [1], 2500 nM in series [2], over 10000 nM at D(2) dopamine receptor [5] and over 10000 nM in series [8]. Moreover, the inhibition at 1 µM in series [10] stood at 14%. Further, in series [13], the inhibition was 3%.
As to `O=S(=O)(NCCCN1CCN(c2nsc3ccccc23)CC1)c1ccc2cc(Cl)ccc2c1`, the Ki came out at 100 nM in [1], 38 nM in [2], 6 nM at D(2) dopamine receptor [5] and 13 nM in [8]. For the same molecule, the inhibition at 1 µM in series [10] came out at 7%. Moreover, the inhibition in series [13] was -7%.
